Assay [1] deals with T1, Adrenergic receptor beta (Homo sapiens) (UniProt P08588+P07550+P13945). To be noted: Cavia porcellus.
Description: Tested for potent Beta adrenergic receptor action in the atria of guinea pig
The target of assay [2] is T1, Adrenergic receptor beta (Homo sapiens). As to conditions: Cavia porcellus. The source holds these as a separate data set.

In the case of `COc1cc(CC2NCCc3cc(O)c(O)cc32)cc(OC)c1OC` (configuration not stated), the results for the pD2 in assay [1] and in assay [2] were 8.8 and 7.8, respectively.

The record behind these values is ChEMBL document CHEMBL1121413, “Synthesis, beta-adrenergic activity, and platelet antiaggregatory activity of a positional isomer of trimetoquinol: 1-(2',4',5'-trimethoxybenzyl)-6,7-dihydroxy-1,2,3,4,-tetrahydroisoquinoline” (J Med Chem, 1980).
